# Experimental data published in patent publication US20120122840A1, “COMPOUNDS AND THERAPEUTIC USES THEREOF” (Myrexis, Inc., priority 2009, published 2012).
# Legend:
# Format in all cases: cell-based
# [1] = test system: A549 cells; assay: Image analysis of chromosome segregation; settings: 10 μM, 24 hours
# From the text: (§1) Image analysis: Cells were fixed and stained with Hoechst dye and anti-(3-tubulin, anti-pericentrin and anti-centromere antibodies. Images were taken on a BD Pathway high content imaging system. For cell cycle analysis, cells were fixed, stained with propidium iodide and analyzed by FACS. For Western blot analysis, cell lysates were run on SDS-polyacrylamide gels and proteins were transferred to PVDF membrane. Membranes were probed with the indicated antibodies.
# Cells were stained with Hoechst dye (blue) and anti-tubulin (green), anti-pericentrin (red) and anti-centromere (white) antibodies.
# [2] = test system: HCT-116 cells; assay: Cell cycle analysis by FACS (propidium iodide); settings: 1 μM, 24, 48 or 72 hours
# From the text: as §1
# Cells were fixed, stained with propidium iodide and analyzed by fluorescence activated cell sorting (FACS) using a FACScan instrument.
# [3] = test system: p53 pathway; assay: Western blot of p53 and p21 in HCT-116 cells
# From the text: as §1
# (§2) Western blot analyses: Cells were lysed in 10 mM Tris-HCl pH 7.5, 1 mM EDTA, 150 mM NaCl, 10% glycerol, protease inhibitor cocktail, phosphatase 1, and phosphatase 2. Protein yields were determined by Bradford assay and equivalent amounts of protein were loaded for each sample.
# Antibodies: All antibodies were purchased from Cell Signaling Technology.
# Cell lysates were analyzed by Western blot with anti-p53, anti-p21 or anti-β-actin antibodies (see FIG. 4A).
# (§3) p53 was previously reported to suppress the expression of survivin. […] Cell lysates were analyzed by Western blot with anti-p53, anti-survivin or anti-β-actin antibodies (see FIG. 4C). […] Induction of p53 preceded the loss of survivin.
# [4] = test system: p21 mRNA; assay: qRT-PCR of p21 mRNA in HCT-116 cells; settings: 1 μM, time course, relative to 7 hour DMSO control
# Method: For qRT-PCR: Primer probe sets for p21 and GAPDH were purchased from Applied Biosystems. qRT-PCR was performed using the Quantitect Probe RT-PCR Kit from Qiagen following the standard protocol.
# The p21 mRNA levels were normalized to the GAPDH mRNA levels from the same total RNA sample.
# [5] = test system: survivin; assay: Western blot of survivin in HCT-116 cells; settings: increasing concentrations, 48 hours
# Method: as §2, §3
# [6] = test system: p53; assay: Western blot with phosphospecific anti-p53 antibodies in HCT-116 cells; settings: 1 μM, 48 hours
# Method: as §2
# Phosphorylation of p53 at various sites on the N-terminus results in the stabilization of p53. […] Cell lysates were analyzed by Western blot with anti-GAPDH, anti-p53 or the phosphospecific anti-p53 antibodies.
# [7] = test system: histone H2AX; assay: Western blot of H2AX-pS139 in HCT-116 cells; settings: 1 μM, 7, 24, 36 or 48 hours
# Method: as §2
# Phosphorylation and stabilization of p53 occurs in response to DNA damage. Phosphorylation of H2AX functions to recruit DNA repair enzymes to sites of DNA damage and serves as a marker for DNA double strand breaks. […] Cell lysates were analyzed by Western blot with anti-H2AX-pS139 (gH2AX) or β-actin antibodies. […] Inhibition of TTK induces the phosphorylation of p53 on serine 15 and H2AX on serine 139.
# [8] = test system: 786-0; assay: CellTiter Glo cell viability, 7 days; settings: Homo sapiens, 168 h, kidney, read-out: 7 day IC50
# Method: (§4) The compounds of the present invention were tested against a panel of cancer cells to determine the effect on cell viability. Viability was determined by measuring cellular ATP levels using CellTiter Glo reagent (Promega, Madison, Wis.).
# (§5) MATERIALS: • A. Cancer cell lines obtained from ATCC or DSMZ • B. RPMI supplemented with 10% FBS/L-glutamine/NEAA/HEPES/Na-Pyruvate • C. DMEM supplemented with 10% FBS and L-glutamine. • B. Compounds, typically 50 mM stocks diluted in DMSO; • C. Clear, flat, TC-surface bottomed 96-well microplates (Corning #3595) • D. CellTiter-Glo® Luminescent Cell Viability Assay (Promega #G7573)
# (§6) METHODS: • 1. Cells were plated at densities of 2000-5000 cells per well in 100 μl volume on a 96-well plate, and were incubated overnight. • 2. Test compound(s) were serially diluted to the desired 250× concentration. • 3. For each concentration of compound to be tested, 0.4 μl of 250× compound was added in triplicate to the cell plates. Plates were then incubated at 37° C. for 7 days. • 4. 100 μL of prepared CellTiter Glo reagent was added to treated cells, and plates were gently mixed for 2 minutes, and equilibrated for 10 minutes at room temperature. • 5. Luminescence was measured and the viability of treated cells relative to DMSO control was calculated.
# (§7) Cancer cell lines were treated with TTK inhibitor for 7 days and cell viability was measured using the CellTiter Glo assay (Promega, Madison, Wis.).
# [9] = test system: BT-474; assay: CellTiter Glo cell viability, 7 days; settings: Homo sapiens, 168 h, breast, read-out: 7 day IC50
# Method: as §4, §5, §6, §7
# [10] = test system: BxPC-3; assay: CellTiter Glo cell viability, 7 days; settings: Homo sapiens, 168 h, pancreas, read-out: 7 day IC50
# Method: as §4, §5, §6, §7
# [11] = test system: Colo-205; assay: CellTiter Glo cell viability, 7 days; settings: Homo sapiens, 168 h, colon, read-out: 7 day IC50
# Method: as §4, §5, §6, §7
# [12] = test system: DMS-114; assay: CellTiter Glo cell viability, 7 days; settings: Homo sapiens, 168 h, lung, read-out: 7 day IC50
# Method: as §4, §5, §6, §7
# [13] = test system: DU-145; assay: CellTiter Glo cell viability, 7 days; settings: Homo sapiens, 168 h, prostate, read-out: 7 day IC50
# Method: as §4, §5, §6, §7
# [14] = test system: DU4475; assay: CellTiter Glo cell viability, 7 days; settings: Homo sapiens, DU-4475, 168 h, breast, read-out: 7 day IC50
# Method: as §4, §5, §6, §7
# [15] = test system: HCC827; assay: CellTiter Glo cell viability, 7 days; settings: Homo sapiens, 168 h, lung, read-out: 7 day IC50
# Method: as §4, §5, §6, §7
# [16] = test system: HCT-15; assay: CellTiter Glo cell viability, 7 days; settings: Homo sapiens, 168 h, colon, read-out: 7 day IC50
# Method: as §4, §5, §6, §7
# [17] = test system: IGR-OV1; assay: CellTiter Glo cell viability, 7 days; settings: Homo sapiens, IGROV-1, 168 h, ovarian, read-out: 7 day IC50
# Method: as §4, §5, §6, §7
# [18] = test system: KARPAS-299; assay: CellTiter Glo cell viability, 7 days; settings: Homo sapiens, 168 h, blood, read-out: 7 day IC50
# Method: as §4, §5, §6, §7
# [19] = test system: MCF-7; assay: CellTiter Glo cell viability, 7 days; settings: Homo sapiens, MCF7, 168 h, breast, read-out: 7 day IC50
# Method: as §4, §5, §6, §7
# [20] = test system: MDA-MB-231; assay: CellTiter Glo cell viability, 7 days; settings: Homo sapiens, 168 h, breast, read-out: 7 day IC50
# Method: as §4, §5, §6, §7
# [21] = test system: MDA-MB-436; assay: CellTiter Glo cell viability, 7 days; settings: Homo sapiens, 168 h, breast, read-out: 7 day IC50
# Method: as §4, §5, §6, §7
# [22] = test system: NCI-N87; assay: CellTiter Glo cell viability, 7 days; settings: Homo sapiens, 168 h, gastric, read-out: 7 day IC50
# Method: as §4, §5, §6, §7
# [23] = test system: OPM-2; assay: CellTiter Glo cell viability, 7 days; settings: Homo sapiens, 168 h, blood, read-out: 7 day IC50
# Method: as §4, §5, §6, §7
# [24] = test system: OVCAR-3; assay: CellTiter Glo cell viability, 7 days; settings: Homo sapiens, 168 h, ovarian, read-out: 7 day IC50
# Method: as §4, §5, §6, §7
# [25] = test system: OVCAR-5; assay: CellTiter Glo cell viability, 7 days; settings: Homo sapiens, 168 h, ovarian, read-out: 7 day IC50
# Method: as §4, §5, §6, §7
# [26] = test system: PANC1; assay: CellTiter Glo cell viability, 7 days; settings: Homo sapiens, PANC-1, 168 h, pancreas, read-out: 7 day IC50
# Method: as §4, §5, §6, §7
# [27] = test system: PC-3; assay: CellTiter Glo cell viability, 7 days; settings: Homo sapiens, 168 h, prostate, read-out: 7 day IC50
# Method: as §4, §5, §6, §7
# [28] = test system: SK-BR-3; assay: CellTiter Glo cell viability, 7 days; settings: Homo sapiens, 168 h, breast, read-out: 7 day IC50
# Method: as §4, §5, §6, §7
# [29] = test system: SW-480; assay: CellTiter Glo cell viability, 7 days; settings: Homo sapiens, SW480, 168 h, colon, read-out: 7 day IC50
# Method: as §4, §5, §6, §7
# [30] = test system: U-87MG; assay: CellTiter Glo cell viability, 7 days; settings: Homo sapiens, 168 h, CNS, read-out: 7 day IC50
# Method: as §4, §5, §6, §7
# [31] = test system: ZR-75-1; assay: CellTiter Glo cell viability, 7 days; settings: Homo sapiens, 168 h, breast, read-out: 7 day IC50
# Method: as §4, §5, §6, §7
compound,measurement,setting,value
"Cc1cc(N2CCOCC2)ccc1Nc1nc(NC2CCCCC2)c2nc[nH]c2n1 [Compound A, N6-cyclohexyl-N2-(2-methyl-4-morpholino-phenyl)-9H-purine-2,6-diamine]",chromosome segregation,[1],causes chromosome segregation defects
same,DNA content (ploidy),[2],"both aneuploidy, as seen in FIG. 3 by a broadening of the 2N and 4N peaks, as well as the formation of tetraploid (8N) cells"
same,time of maximal induction of the p53 pathway,[3]; 1 μM,≤ 36 h
same,"p53 pathway activation (p53, p21 protein)","[3]; 1 μM, time course",activate the p53 pathway in a time- and dose-dependent manner
same,p53 protein induction,"[3]; increasing concentrations, 48 hours",induced p53 in a dose- and time-dependent manner
same,p21 mRNA normalized to GAPDH mRNA,[4],induced in a time-dependent manner
same,survivin protein,[5],decrease in survivin protein
same,site of p53 phosphorylation,[6],phosphorylated on serine 15
same,phosphorylation of serine 139 on H2AX,[7],induced by Compound A in a time-dependent manner
"Cc1cc(N2CCOCC2)ccc1Nc1nc(NC2CCCCC2)c2nc[nH]c2n1 [N6-cyclohexyl-N2-(2-methyl-4-morpholino-phenyl)-9H-purine-2,6-diamine]",IC50,[8],1200 nM
same,IC50,[9],> 30 µM
same,IC50,[10],120 nM
same,IC50,[11],90 nM
same,IC50,[12],180 nM
same,IC50,[13],370 nM
same,IC50,[14],72 nM
same,IC50,[15],94 nM
same,IC50,[16],280 nM
same,IC50,[17],580 nM
same,IC50,[18],96 nM
same,IC50,[19],61 nM
same,IC50,[20],28 µM
same,IC50,[21],8.7 µM
same,IC50,[22],2100 nM
same,IC50,[23],99 nM
same,IC50,[24],150 nM
same,IC50,[25],150 nM
same,IC50,[26],3.7 µM
same,IC50,[27],200 nM
same,IC50,[28],56 nM
same,IC50,[29],140 nM
same,IC50,[30],670 nM
same,IC50,[31],56 nM
